These compounds were tested against S. pneumoniae Topoisomerase IV ATPase (ParE) (Streptococcus pneumoniae serotype 4, UniProt Q59961) (assay: S. pneumoniae Topoisomerase IV ATPase inhibition). Details: values marked * are an average of two or more data points, read-out: % Inh (13 μM) of S. pneumoniae Topoisomerase IV ATPase.
Sequence of S. pneumoniae Topoisomerase IV ATPase (ParE) (Q59961 whole entry): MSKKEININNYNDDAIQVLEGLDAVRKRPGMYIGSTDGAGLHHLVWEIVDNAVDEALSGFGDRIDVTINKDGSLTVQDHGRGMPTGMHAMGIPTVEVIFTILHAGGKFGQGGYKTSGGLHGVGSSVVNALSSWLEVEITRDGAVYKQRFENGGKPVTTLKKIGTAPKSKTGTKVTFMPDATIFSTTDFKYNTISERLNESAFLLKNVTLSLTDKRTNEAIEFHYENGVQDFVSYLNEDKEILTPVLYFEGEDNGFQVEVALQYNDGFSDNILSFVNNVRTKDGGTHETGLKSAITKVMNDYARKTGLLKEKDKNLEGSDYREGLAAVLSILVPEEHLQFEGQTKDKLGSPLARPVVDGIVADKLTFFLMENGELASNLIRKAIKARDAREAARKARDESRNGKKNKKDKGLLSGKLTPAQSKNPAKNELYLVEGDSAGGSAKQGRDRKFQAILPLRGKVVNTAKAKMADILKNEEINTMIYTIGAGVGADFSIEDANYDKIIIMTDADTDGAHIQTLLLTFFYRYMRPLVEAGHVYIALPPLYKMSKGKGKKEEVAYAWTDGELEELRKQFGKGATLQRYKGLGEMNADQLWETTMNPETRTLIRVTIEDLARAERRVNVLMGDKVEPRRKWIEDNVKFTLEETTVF
Type: biochemical
Summary of the method: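 Phosphate release by ParE ATPase from S. pneumoniae read colorimetrically (malachite green, 650 nm), enzyme 1.25 nM, ATP 160 μM, salmon sperm DNA present, buffer 20 mM Tris pH 8.0 with 8 mM MgCl2. IC50 over 10 compound concentrations, EDTA (20 μM) and DMSO controls defining inhibition range.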
Compound O=C(O)/C=C/c1cccc(-c2cnc(Nc3ccc(F)c(Cl)c3)nc2N2CCCC2)c1 [Example 294, (E)-3-(3-(2-(3-chloro-4-fluorophenylamino)-4-(pyrrolidin-1-yl)pyrimidin-5-yl)phenyl)acrylic acid] has an inhibition at 13 µM of 73.2%. COc1cc(Nc2ncc(-c3cncc(C(=O)NS(C)(=O)=O)c3)c(-n3nc(C(F)(F)F)cc3C)n2)cc(OC)c1 [Example 687, 5-{2-[(3,5-dimethoxyphenyl)amino]-4-[5-methyl-3-(trifluoromethyl)-1H-pyrazol-1-yl]pyrimidin-5-yl}-N-(methylsulfonyl)pyridine-3-carboxamide] gave an inhibition at 13 µM of 100%. With O=C(O)/C=C/c1cccc(-c2cnc(Nc3ccc(F)c(Cl)c3)nc2NCCc2nc3ccccc3[nH]2)c1 [Example 265, (2E)-3-[3-(4-{[2-(1H-benzimidazol-2-yl)ethyl]amino}-2-[(3-chloro-4-fluorophenyl)amino]pyrimidin-5-yl)phenyl]prop-2-enoic acid] the inhibition at 13 µM was 84.9%. Compound O=C(O)c1cncc(-c2cnc(Nc3ccc(F)c(Cl)c3)nc2-n2cc(-c3ccccn3)cn2)c1 [Example 535] has an inhibition at 13 µM of 100%. For COc1cc(Cl)cc(Nc2ncc(-c3cncc(C(=O)O)c3)c(-n3ccc(C(F)(F)F)n3)n2)c1 [Example 774, 5-{2-[(3-chloro-5-methoxyphenyl)-amino]-4-[3-(trifluoromethyl)-1H-pyrazol-1-yl]pyrimidin-5-yl}pyridine-3-carboxylic acid], the inhibition at 13 µM was 100%. COc1ncc(-c2cnc(Nc3cc(Cl)cc(C#N)c3)nc2-n2nc(C(F)(F)F)cc2C)cc1C(=O)O [Example 1122, 5-(2-(3-chloro-5-cyanophenylamino)-4-(5-methyl-3-(trifluoromethyl)-1H-pyrazol-1-yl)pyrimidin-5-yl)-2-methoxynicotinic acid] gave an inhibition at 13 µM of 100%. COc1cc(Nc2ncc(-c3cnc(OC)c(C(=O)NCCS(C)(=O)=O)c3)c(-n3nc(C(F)(F)F)cc3C)n2)cc(OC)c1 [Example 812, 5-{2-[(3,5-dimethoxyphenyl)amino]-4-[5-methyl-3-(trifluoromethyl)-1H-pyrazol-1-yl]pyrimidin-5-yl}-2-methoxy-N-[2-(methylsulfonyl)ethyl]pyridine-3-carboxamide] showed an inhibition at 13 µM of 100%. O=C(O)CNc1nc(Nc2ccc(F)c(Cl)c2)ncc1-c1cncc(C(=O)O)c1 [Example 238, 5-[4-(carboxymethylamino)-2-[(3-chloro-4-fluorophenyl)amino]-pyrimidin-5-yl]pyridine-3-carboxylic acid] was tested, and the inhibition at 13 µM was 72.6%. For Fc1ccc(Nc2ncc(-c3cncnc3)c(-n3nnc4ncccc43)n2)cc1Cl [Example 88, N-(3-chloro-4-fluorophenyl)-4-(1H-[1,2,3]triazolo[4,5-b]pyridin-1-yl)-5,5′-bipyrimidin-2-amine], the inhibition at 13 µM was 102%. COC(=O)c1cccc(-c2cnc(Nc3ccc(F)c(Cl)c3)nc2NCCCN(C)C)c1 [Example 2, methyl 3-(2-(3-chloro-4-fluorophenylamino)-4-(3-(dimethylamino)propylamino)pyrimidin-5-yl)benzoate] gave an inhibition at 13 µM of 77.8%. CC1CCC(C)N1c1nc(Nc2ccc(F)c(Cl)c2)ncc1-c1cncc(C(=O)O)c1 (centres unmarked) [Example 252, 5-[2-[(3-chloro-4-fluorophenyl)amino]-4-(2,5-dimethylpyrrolidin-1-yl)pyrimidin-5-yl]pyridine-3-carboxylic acid] showed an inhibition at 13 µM of 81.8%. Compound COc1cc(C)cc(Nc2ncc(-c3cnc(OC)c(C(=O)NS(C)(=O)=O)c3)c(-n3nc(C(F)(F)F)cc3C)n2)c1 [Example 857, 2-methoxy-5-{2-[(3-methoxy-5-methylphenyl)amino]-4-[5-methyl-3-(trifluoromethyl)-1H-pyrazol-1-yl]pyrimidin-5-yl}-N-(methylsulfonyl)pyridine-3-carboxamide] has an inhibition at 13 µM of 100%. Compound Fc1ccc(Nc2ncc(-c3cncnc3)c(NCc3ccco3)n2)cc1Cl [Example 53, N^2-(3-chloro-4-fluorophenyl)-N^4-(furan-2-ylmethyl)-5-pyrimidin-5-ylpyrimidine-2,4-diamine] has an inhibition at 13 µM of 70.5%. For CCNS(=O)(=O)c1cccc(-c2cnc(Nc3ccc(F)c(Cl)c3)nc2-n2ccc(C(F)(F)F)n2)c1 [Example 995, 3-(2-(3-Chloro-4-fluorophenylamino)-4-(3-(trifluoromethyl)-1H-pyrazol-1-yl)pyrimidin-5-yl)-N-ethylbenzenesulfonamide], the inhibition at 13 µM was 89%. With CCOC(=O)c1cncc(-c2cnc(Nc3ccc(F)c(Cl)c3)nc2NCC2CCCO2)c1 (centres unmarked) [Example 108, ethyl 5-[2-[(3-chloro-4-fluorophenyl)amino]-4-(oxolan-2-ylmethylamino)pyrimidin-5-yl]pyridine-3-carboxylate] the inhibition at 13 µM was -18.1%. Work on CCOC(=O)c1sc(-c2cnc(Nc3ccc(F)c(Cl)c3)nc2NCCCOC)nc1-c1ccccc1 [Example 506, ethyl 2-{2-[(3-chloro-4-fluorophenyl)amino]-4-[(3-methoxypropyl)amino]pyrimidin-5-yl}-4-phenyl-1,3-thiazole-5-carboxylate] yielded an inhibition at 13 µM of 33%. Work on COc1cc(Nc2ncc(-c3cnc(OCCNC(C)=O)c(C(=O)O)c3)c(-n3nc(C(F)(F)F)cc3C)n2)cc(OC)c1 [Example 957, 2-(2-acetamidoethoxy)-5-(2-(3,5-dimthoxyphenylamino)-4-(5-methyl-3-(trifluoromethyl)-1H-pyrazol-1-yl)pyrimidin-5-yl)nicotinic acid] yielded an inhibition at 13 µM of 100%. With COCC(COC)Nc1nc(Nc2ccc(F)c(Cl)c2)ncc1-c1cncc(C(=O)O)c1 [Example 283, 5-(2-(3-chloro-4-fluorophenylamino)-4-(1,3-dimethoxypropan-2-ylamino)pyrimidin-5-yl)nicotinic acid] the inhibition at 13 µM was 89.9%. In the case of O=C(O)/C=C/c1cccc(-c2cnc(Nc3cccc(F)c3)nc2-n2ccc(C(F)(F)F)n2)c1 [Example 621, (2E)-3-(3-{2-[(3-fluorophenyl)amino]-4-[3-(trifluoromethyl)-1H-pyrazol-1-yl]pyrimidin-5-yl}phenyl)prop-2-enoic acid], the inhibition at 13 µM was 100%. For CC(C)OCCNc1nc(Nc2ccc(F)c(Cl)c2)ncc1-c1cncnc1 [Example 52, N^2-(3-chloro-4-fluorophenyl)-N4-(2-propan-2-yloxyethyl)-5-pyrimidin-5-ylpyrimidine-2,4-diamine], the inhibition at 13 µM was 69.5%. Compound COc1cc(Nc2ncc(-c3cnc(OC)c(C(=O)NS(=O)(=O)c4ccc(CNC(C)=O)cc4)c3)c(-n3nc(C(F)(F)F)cc3C)n2)cc(OC)c1 [Example 846, N-({4-[(acetylamino)methyl]phenyl}sulfonyl)-5-{2-[(3,5-dimethoxyphenyl)amino]-4-[5-methyl-3-(trifluoromethyl)-1H-pyrazol-1-yl]pyrimidin-5-yl}-2-methoxypyridine-3-carboxamide] has an inhibition at 13 µM of 97%. With CCOC(=O)c1cncc(-c2cnc(Nc3ccc(F)c(Cl)c3)nc2NC2CCN(C(C)=O)CC2)c1 [Example 92, 5-[4-(1-Acetyl-piperidin-4-ylamino)-2-(3-chloro-4-fluoro-phenylamino)-pyrimidin-5-yl]-nicotinic acid ethyl ester] the inhibition at 13 µM was 3.56%. O=C(O)c1cncc(-c2cnc(Nc3ccc(F)c(Cl)c3)nc2-n2cccc2)c1 [Example 311, 5-{2-[(3-chloro-4-fluorophenyl)amino]-4-(1H-pyrrol-1-yl)pyrimidin-5-yl}pyridine-3-carboxylic acid] was tested, and the inhibition at 13 µM was 81.8%.
